# Patent US20150359798A1, “PIPERAZINYL DERIVATIVE REDUCES HIGH-FAT DIET-INDUCED ACCUMULATION OF FAT IN THE LIVERS, […]” (priority 2011, published 2015)
# What was measured:
# mice fed with HFD = test: HFD-fed mice, 8 weeks, gavage: serum/liver lipids, body weight, food intake; type: in vivo; conditions: HFD mice, 8 weeks
# Protocol: (§1) In the 8 week experiment, C57BL/6J male mice (21-22 g), after fasting, were fed a HFD as a model of hyperlipidemia for 8 weeks. During the 2 month experiments, mice fasted for one night before the experiment was changed from a standard diet (STD) to a HFD and then the mice were randomly divided into 5 groups, including 2 control and 3 treatment groups. Six mice were used in each group. […] Liver from the protection group supplemented with KMUP-1 HCl (1 mg/kg/day) were used to determine the HMG CoA reductase expression.
# Within 2 months, the 3 day food intake average for each animal was measured. The weight gain and plasma lipid levels of each group were determined and compared to the non-treatment control group. Mouse blood was collected during the daytime by cardiac puncture followed by centrifugation at 90 g (Benchtop Centrifuge, U.S.A.) to separate the serum, and frozen at −80° C., for biochemical analysis using a Hitachi Clinical Analyzer 7070 (Hitachi High-Technologies Co. Tokyo, Japan). Agents used in the assays were Obtained from Merck & Co. (Kenilworth, N.J., U.S.A.). Triglyceride (TG), total cholesterol, HDL cholesterol and LDL cholesterol in mouse serum were measured by methods used in the clinic. To measure the hepatic TG, isolated liver were cut into small chips.
# PPARγ = PPARγ expression in liver of HFD mice (8 weeks); type: in vivo; conditions: animals treated with HFD
# Protocol: as §1
# For the expression of SR-B1, HMGR, PPARγ and ROCK isolated liver tissues were cut into small chips and placed into an extraction buffer (Tris 10 mM, pH 7.0, NaCl 140 mM, PMSF 2 mM, DTT 5 mM, NP-40 0.5%, pepstatin A 0.05 mM and leupeptin 0.2 mM) for hepatic protein extraction, and centrifuged at 20,000 g for 30 minutes. The obtained protein extract was boiled to a ratio of 4:1 with a sample buffer (Tris 100 mM, pH 6.8, glycerol 20%, SDS 4% and bromophenol blue 0.2%). Electrophoresis was performed using 10% SDS-polyacrylamide gel (1 hour, 100 V, 40 mA, 20 μg protein per lane).
# Separated proteins, after 3 repeated centrifugations to discard up-layer tissue lipid inpurity, were transferred to PVDF membranes treated with 5% fat-free milk powder to block the nonspecific IgGs (90 minutes, 100 V) and incubated for 1 hour with specific protein antibody. […]
# PKA = test: Hepatic PKA expression (14-week experiment); type: in vivo, mice; conditions: drinking KMUP-1; protection and treatment groups
# PKG = test: Hepatic PKG expression (14-week experiment); type: in vivo, mice; conditions: drinking KMUP-1; protection and treatment groups
# TNF-α = test: IHC staining of TNF-α in steatohepatitis liver; type: in vivo, mice; conditions: 2.5 mg/kg/day, 14 weeks (protection) and 6 weeks (treatment)
# Protocol: (§2) In the 14-week experiment, mice were fed a HFD from week 1 to week 14. During the 3 month experiments, KMUP-1 HCl (2.5 mg) was added to 200 ml tap water and) and drink for 14 weeks or for the last 6 weeks on mice or obese mice fed HFD, separately. 5 mice had free access to drinking water from week 1 to week 14 (protective group) or from week 8 to week 14 (treatment group). Tap water was used to normalize mineral nutrition (Scheme A).
# (§3) For IHC of MMP-9/TNFα, HSL/p-HSL/ATGL and eNOS/IL-10, antigen retrieval of de-paraffinated sections was performed in Dako target retrieval solution, pH 9.0, in a vegetable steamer followed by the quenching of endogenous peroxidase activity with 3.0% H2O2 in methanol. Sections were then incubated with specific primary antibodies overnight at 4° C. in a humidified chamber. The antibodies used included rabbit polyclonal anti-eNOS (1:50 dilution) (Abcam, Cambridge, UK) or rabbit monoclonal anti-cleaved caspase-3 (1:50 dilution) (Cell Signaling, USA). The sections were then examined using a DAKO REAL EnVision™ Detection System kit (DAKO, Carpinteria, Calif.) and counterstained with hematoxylin. Images were obtained through a Nikon Eclipse TE200-S microscope.
# MMP-9 = test: IHC staining of MMP-9 in steatohepatitis liver; type: in vivo, mice; conditions: treatment and protection groups
# Protocol: as §2, §3
# HSL = test: IHC staining of HSL in epididymal fat pads; type: in vivo, mice; conditions: protection, 2.5 mg/kg/day
# Protocol: as §3
# ROCK II = ROCK II expression in HepG2 cells; type: cell-based
# Protocol: HepG2 cells were treated with various concentrations of drugs for 24 hours. Reactions were terminated by washing twice with cold PBS, and the cells were then harvested, Proteins in the whole-cell lysate were homogenized in an ice-cold lysis buffer and a protease inhibitor (Sigma-Aldrich, St. Louis, Mo., U.S.A.). The homogenate was centrifuged at 90, 000 g for 15 minutes at 4° C., and supernatant was recovered as the total cellular protein. Cytosolic and membrane fractions of HepG2 cells were prepared using a. CNM (Cytosol Nuclear Membrane) compartment protein extraction kit (BioChain Institute Inc., Hayward, Calif., U.S.A.) according to the manufacturer's instructions. All of the fractionated protein solutions were stored at -80° C. until analysis. To measure the expression levels of proteins by drugs, the total cell protein was extracted after incubation with treatments for 24 hours and then Western blotting analysis was performed as described previously.
# eNOS = test: Table 3 eNOS (% of control); type: cell-based; conditions: control group = 100 (%)
structure (smiles),measurement,setting,value
"Cn1c(=O)c2c(ncn2CCN2CCN(c3ccccc3Cl)CC2)n(C)c1=O [KMUP-1, 7-[2-[4-(2-chlorophenyl)piperazinyl]ethyl]-1,3-dimethyl xanthine]",HDL cholesterol level,mice fed with HFD,significantly increased
same,HFD-induced hypercholesterolemia,mice fed with HFD,significantly improved
same,HDL cholesterol,mice fed with HFD; 2.5 mg/kg,103.6 ± 4.2 mg/dL
same,LDL cholesterol,mice fed with HFD; 2.5 mg/kg,14.2 ± 1.4 mg/dL
same,TG in serum,mice fed with HFD; 2.5 mg/kg,74.5 ± 5.1 mg/dL
same,TG of liver,mice fed with HFD; 2.5 mg/kg,28.4 ± 3.6 mg/dL
same,Tot. chol. (total cholesterol),mice fed with HFD; 2.5 mg/kg,133.0 ± 5.1 mg/dL
same,final BW (Body weight),mice fed with HFD; 2.5 mg/kg,25.7 ± 0.7 g
same,HDL cholesterol,mice fed with HFD; 5 mg/kg,118.3 ± 5.7 mg/dL
same,LDL cholesterol,mice fed with HFD; 5 mg/kg,14.2 ± 2.2 mg/dL
same,TG in serum,mice fed with HFD; 5 mg/kg,72.7 ± 4.7 mg/dL
same,TG of liver,mice fed with HFD; 5 mg/kg,26.12 ± 3.1 mg/dL
same,Tot. chol. (total cholesterol),mice fed with HFD; 5 mg/kg,125.5 ± 9.8 mg/dL
same,final BW (Body weight),mice fed with HFD; 5 mg/kg,24.3 ± 0.5 g
same,PPARγ in liver,PPARγ,activated
same,hepatic PKA expression,PKA,promote
same,hepatic PKG expression,PKG,promote
same,TNF-α immunohistochemistry on fatty liver slices,TNF-α,inhibited partial
same,"antibody response to MMP-9 (IHC, liver)",MMP-9,shaded by the treatment and almost disappeared in the protection group
same,IHC staining of HSL in epididymal fat pads,HSL,increased
same,ROCK II protein expression,"ROCK II; HepG2, 10^−9-10^−5 M",concentration-dependently reduced
same,Rp-8-pCPT-cGMPS-increased ROCK II expression,"ROCK II; HepG2, combination with KMUP-1 10 μM",inhibited
same,GGPP- and FPP-increased RhoA/ROCK II expression,"ROCK II; HepG2, in the presence of exogenous GGPP and FPP, 10^−9-10^−5M",attenuated
same,eNOS,eNOS; 0.1 μM,121.6 ± 16.5%
same,eNOS,eNOS; 1.0 μM,132.7 ± 15.2%
same,eNOS,eNOS; 10 μM,138.9 ± 15.2%
